{"source": "patent US20040034336A1", "about": "“Charged liposomes/micelles with encapsulted medical compounds” (priority 2002, published 2004)", "test": "Local delivery of drug in charged liposomes/micelles from a hydrogel-coated metal mesh catheter by iontophoresis", "settings": "iontophoresis 5 mA, 8 V, 10 minutes", "procedure": "Liposome or micelles were prepared by mixing 3.0 mg of phosphatidylcholine, 3.0 mg of cholesterol and 0.3 mg of phosphatidylserine in a test tube. Chloroform (200 microliters) was added and the solution was evaporated to dryness in a test tube. 7-Amino Actinomycin D (500 mg) was dissolved in 8 mM CaCl2 for a final concentration of 0.5 mg/ml. The 7-Amino Actinomycin D solution was added to the lipid mixture in small aliquots with constant stirring. The hydrogel-coated metal mesh catheter was placed in the 7-amino Actinomycin D/liposome or micelle mixture and then used for drug delivery in the following manner: The hydrogel-coated metal mesh catheter was placed in the 7-Amino Actinomycin D/liposome or micelle mixture and then removed. In some cases, the hydrogel-coated mesh portion of the catheter was covered with a retractable sheath to prevent loss of the compound during the transport of the catheter from the arterial access site to the target site. When the catheter was positioned at the target site the sheath was retracted and the mesh was expanded against the arterial wall. Iontophoersis was performed by applying an electrical current to the mesh. […] In this example the iontophoresis parameters were 5 mA, and 8 V, applied for 10 minutes.", "data": [{"smiles": "Cc1c2oc3c(C)c(N)cc(C(=O)N[C@@H]4C(=O)N[C@H](C(C)C)C(=O)N5CCC[C@H]5C(=O)N(C)CC(=O)N(C)[C@@H](C(C)C)C(=O)O[C@@H]4C)c3nc-2c(C(=O)N[C@@H]2C(=O)N[C@H](C(C)C)C(=O)N3CCC[C@H]3C(=O)N(C)CC(=O)N(C)[C@@H](C(C)C)C(=O)O[C@@H]2C)c(N)c1=O", "note": "[7-Amino Actinomycin D]", "values": [{"measurement": "distribution of the fluorescent compound in the vessel after local delivery", "setting": "7-Amino Actinomycin D/liposome or micelle mixture (phosphatidylcholine, cholesterol, phosphatidylserine)", "result": "throughout the vessel wall and in the outer layer of the vessel"}, {"measurement": "localization in the cells of the vessel after local delivery", "setting": "7-Amino Actinomycin D/liposome or micelle mixture", "result": "evidence of localization of the 7-Amino Actinomycin D in the nuclei of the cells"}]}]}
